In US11364260B2, “Methods and compositions for administration of iron” (American Regent, Inc., priority 2006, dated 2022):
Where two headings read alike, the source gives them in different places.

Legend:
subjects with anemia [1] = experiment: Integrated safety studies (10 clinical studies A-J)
Excerpt: (§2) Study A was a single-center, single-dose escalation, randomized, double-blind, placebo-controlled pharmacokinetic study. Subjects were male and female, between 18 and 45 years of age, inclusive, with mild iron-deficiency anemia. […] Examined pharmacokinetic parameters included total serum iron and pharmacodynamic (serum ferritin and transferrin, iron binding capacity, % TSATpost, hemoglobin, reticulocyte, and serum transferrin receptor concentrations) endpoints. Examined safety parameters included adverse events, clinical laboratory evaluations, vital signs, ECG, and physical examinations.
(§3) Study B was a single-center, single-dose, open label, uncontrolled pharmacokinetic study. Subjects were between 18 and 75 years of age with iron-deficiency or renal anemia with no other cause of anemia. Inclusion criteria included hemoglobin concentration between 9 and 13 g/dL, no blood transfusions in the previous 3 months, and no history of treatment with intravenous iron in the last 2 weeks. […] Examined primary pharmacokinetic parameters included the distribution of ^52Fe and incorporation of ^59Fe into red blood cells. Examined safety parameters included adverse events, clinical laboratory evaluations, vital signs, and physical examinations.
(§4) Study C was an open-label, multicenter, randomized, multiple-dose, active-controlled postpartum anemia study. […] Where screening serum transferrin saturation (TSAT) was 20% or screening ferritin was 50 ng/mL, dosage=pre-pregnancy weight (kg)×(15−baseline hemoglobin [g/dL])×2.4+500 mg. Where screening TSAT was >20% and screening ferritin was >50 ng/mL, dosage=pre-pregnancy weight (kg)×(15−baseline hemoglobin [g/dL])×2.4. […] For primary efficacy, “success” was defined as an increase in hemoglobin of ≥2 g/dL anytime between baseline and end of study or time of intervention, while “failure” was defined as <2 g/dL increase in hemoglobin at all times between baseline and end of study or time of intervention. Examined safety parameters included adverse events, clinical laboratory evaluations, vital signs, and physical examinations.
(§5) Study D was a multicenter, open-label, randomized, active-controlled, multiple-dose postpartum anemia study. Subjects were adult women ≥18 years old with postpartum anemia within 6 days after delivery. Treatment was administered once-weekly for a maximum of 3 infusions. […] Patients ≤66 kg received a minimum dose of 200 mg and a maximum dose of 15 mg iron/kg during each infusion. Patients >66 kg received a dose of 1000 mg on the first dosing occasion, and a minimum dose of 200 mg and a maximum dose of 1000 mg at each subsequent dosing. Doses of 200-400 mg were diluted in 100 cc NSS and 500-1000 mg were diluted in 250 cc NSS. Primary efficacy was examined as change from baseline levels of hemoglobin to Week 12. Examined safety parameters included adverse events in the mother and breast-fed infant, adverse events leading to discontinuation of treatment, vital signs, 12-lead electrocardiogram (ECG), physical examinations, and clinical laboratory panels.
(§6) Study E was a multicenter, open-label, randomized, active-controlled, multiple-dose hemodialysis-associated anemia study.

subjects with anemia [2] = conditions: human, in vivo
Excerpt: as §2, §3, §4, §5, §6

dextran antibodies = experiment: Reaction with dextran antibodies / dextran antigenicity test
[3] = PET pharmacokinetic study of 52Fe/59Fe labelled VIT-45 after i.v. administration; type: in vivo, human
Excerpt: See e.g., Beshara et al. (2003) Br. J. Haematol. 120(5): 853-859.
(§1) There was negligible renal elimination.

rodents = experiment: Single-dose toxicity studies, intravenous, rodents; type: in vivo
dogs [4] = experiment: Pre-clinical 13-week cumulative dose study in dogs; type: in vivo; conditions: over 13 weeks
rats [5] = experiment: Single dose toxicity in rats; type: in vivo
dogs [6] = experiment: Single-dose toxicity studies, intravenous, dogs; type: in vivo
[7] = Core and particle size of iron carbohydrate complexes (electron micrographs); type: physicochemical
Excerpt: FIG. 1A-FIG. 1C are a series of electron micrographs that depict the particle size of three iron carbohydrate complexes. […] FIG. 1B is an electron micrograph depicting the particle size of Venofer® (an iron sucrose).
It is within the skill of the art to test various characteristics of iron carbohydrate complexes as so determine amenability to use in the methods described herein. For example, pH and osmolarity are straightforward determinations performed on a sample formulation. Likewise, techniques such as electron micrograph imaging, transmission electron microscopy, and atomic force microscopy provide direct methods to analyze both iron core and particle size. See e.g., FIG. 1; Table 1. The stability of the carbohydrate complex can be assessed through physicochemical properties such as kinetic characteristics, thermodynamic characteristics, and degradation kinetics. See, Geisser et al. (1992) Arzneimittelforschung 42(12):1439-1452. […] Pharmacokinetics can be assessed, for example, by iron tracer experiments. Hypersensitivity reactions can be monitored and assessed as described in, for example, Bailie et al. (2005) Nephrol. […] Safety, efficacy, and toxicity in human subjects can be assessed, for example, as described in Spinowitz et al. (2005) Kidney Intl. […]

[8] = In vitro and in vivo mutagenicity tests
rats [9] = experiment: Pre-clinical 13-week cumulative dose study in rats; type: in vivo; conditions: over 13 weeks
[10] = Pharmacokinetic studies (total serum iron) in patients with iron deficiency anemia; type: in vivo, human
Excerpt: as §1

mice = experiment: Single dose toxicity in mice
[11] = Single dose toxicity (LD50, acute toxicity); conditions: in vivo
[12] = system: patients with iron deficiency anemia or renal anemia; experiment: Safety assessments in patients with iron deficiency anemia and renal anemia; type: in vivo, human
patients = experiment: Efficacy studies: pharmacodynamic effects (serum iron, TfS, serum ferritin); type: in vivo, human; conditions: single and repeated doses
Excerpt: The increase in serum ferritin levels illustrated the replenishment of the depleted iron stores, which is a well-identified and desired effect of iron therapy.

[13] = pH and osmolarity of the iron carbohydrate complex; type: physicochemical
Excerpt: It is within the skill of the art to test various characteristics of iron carbohydrate complexes as so determine amenability to use in the methods described herein. For example, pH and osmolarity are straightforward determinations performed on a sample formulation. Likewise, techniques such as electron micrograph imaging, transmission electron microscopy, and atomic force microscopy provide direct methods to analyze both iron core and particle size. See e.g., FIG. 1; Table 1. The stability of the carbohydrate complex can be assessed through physicochemical properties such as kinetic characteristics, thermodynamic characteristics, and degradation kinetics. See, Geisser et al. (1992) Arzneimittelforschung 42(12):1439-1452. Useful techniques to assess physical and electronic properties include absorption spectroscopy, X-ray diffraction analysis, transmission electron microscopy, atomic force microscopy, and elemental analysis. See, Kudasheva et al. (2004) J. Inorg. Biochem. 98:1757-1769. Pharmacokinetics can be assessed, for example, by iron tracer experiments. Hypersensitivity reactions can be monitored and assessed as described in, for example, Bailie et al. (2005) Nephrol. Dial. Transplant 20(7):1443-1449. Safety, efficacy, and toxicity in human subjects can be assessed, for example, as described in Spinowitz et al. (2005) Kidney Intl. 68:1801-1807.

patients (Hb levels) = experiment: Multiple dose efficacy study, Cohorts 1 and 2 (Hb levels); type: in vivo, human
Excerpt: Efficacy of iron replacement therapy is interpreted mainly in terms of the ability to normalize Hb levels and iron stores. […] In one study, 37% and 48% of patients in Cohorts 1 and 2, respectively, had achieved normal Hb levels at the 4-week follow-up visit, and 75% and 73%, respectively, had achieved a ≥20 g/L increase in Hb on at least 1 occasion.

rabbit = experiment: Intra-arterial, perivenous, intravenous tolerance studies; type: in vivo
[14] = system: patients receiving regular hemodialysis; experiment: Multiple dose efficacy study in patients receiving regular hemodialysis; type: in vivo, human
Excerpt: However, elevated levels of ferritin and TfS indicating iron overload were avoided. In both of these studies, there was a gradual decrease in transferrin over time, also indicating successful iron replacement.

[15] = Iron (III) Control Release Test; type: physicochemical
[16] = in vivo; cited from earlier work
[17] = isotonic; cited from earlier work
[18] = light scattering; cited from earlier work
[19] = calculated dose/first-dose 1,000 mg studies

ferrous sulfate [oral iron, reference compound]
incidence of premature discontinuation due to adverse events (subjects with anemia [1]): 3.1%
incidence of adverse events associated with investigations (subjects with anemia [1]; [19]): 3.9%
incidence of gastrointestinal disorders (subjects with anemia [1]; [19]): 31.0%
incidence of skin and subcutaneous tissue disorders (subjects with anemia [1]; [19]): 2.4%
incidence of treatment-emergent adverse events on the first day of dosing (subjects with anemia [1]; [19]): 2.7%
overall incidence of treatment-emergent adverse events (subjects with anemia [1]; [19]): 51.2%
incidence of adverse events leading to discontinuation (subjects with anemia [1]; completed multicenter studies): 2.1%
incidence of gastrointestinal events (subjects with anemia [1]; completed multicenter studies): 31.0%
incidence of premature discontinuations (subjects with anemia [1]; completed multicenter studies): 9.6%
overall incidence of treatment-emergent adverse events (subjects with anemia [1]; completed multicenter studies): 51.2%
incidence of drug-related treatment-emergent adverse events of hypersensitivity (subjects with anemia [2]): 0.2%

polynuclear iron (III)-hydroxide 4(R)-(poly-(1→4)-O-α-D-glucopyranosyl)-oxy-2(R),3(R),5(R),6-tetrahydroxy-hexanoate [VIT-45]
reaction with dextran antibodies (dextran antibodies): does not react with dextran antibodies
specific responses in dextran antigenicity test (dextran antibodies): no specific responses
calculated terminal half-life (t1/2) ([3]; i.v., patients): approximately 16 hours
distribution after intravenous administration ([3]; in vivo, iv): mainly found in the liver, spleen, and bone marrow
safe and tolerated intravenous dose relative to 1,000 mg iron once weekly in humans (rodents): up to 60 times
cumulative dose with no observed adverse effect level (clinical signs of iron accumulation in liver, spleen, kidneys) (dogs [4]): up to 117 mg iron/kg body weight
highest non-lethal dose level (rats [5]): 1000 mg iron/kg b.w.
safe and tolerated intravenous dose relative to 1,000 mg iron once weekly in humans (dogs [6]): up to 60 times
incidence of premature discontinuation due to adverse events (subjects with anemia [1]): 2.1%
treatment-emergent adverse event: abdominal pain (subjects with anemia [1]; 1095 VIT-45 subjects): 2.5%
treatment-emergent adverse event: blood phosphate decreased (subjects with anemia [1]; 1095 VIT-45 subjects): 2.4%
treatment-emergent adverse event: headache (subjects with anemia [1]; 1095 VIT-45 subjects): 8.6%
treatment-emergent adverse event: hypertension (subjects with anemia [1]; 1095 VIT-45 subjects): 2.2%
treatment-emergent adverse event: hypotension (subjects with anemia [1]; 1095 VIT-45 subjects): 2.0%
treatment-emergent adverse event: nasopharyngitis (subjects with anemia [1]; 1095 VIT-45 subjects): 2.0%
treatment-emergent adverse event: nausea (subjects with anemia [1]; 1095 VIT-45 subjects): 2.4%
incidence of other serious adverse events (subjects with anemia [1]; all completed multicenter studies): 3%
drug-related treatment-emergent adverse event: blood phosphate decreased (subjects with anemia [1]; [19]): 3.3%
drug-related treatment-emergent adverse event: headache (subjects with anemia [1]; [19]): 3.9%
incidence of adverse events associated with investigations (subjects with anemia [1]; [19]): 9.1%
incidence of gastrointestinal disorders (subjects with anemia [1]; [19]): 15.2%
incidence of skin and subcutaneous tissue disorders (subjects with anemia [1]; [19]): 7.3%
incidence of treatment-emergent adverse events on the first day of dosing (subjects with anemia [1]; [19]): 6.8%
overall incidence of treatment-emergent adverse events (subjects with anemia [1]; [19]): 49.5%
incidence of adverse events leading to discontinuation (subjects with anemia [1]; completed multicenter studies): 1.8%
incidence of gastrointestinal events (subjects with anemia [1]; completed multicenter studies): 12.8%
incidence of premature discontinuations (subjects with anemia [1]; completed multicenter studies): 10%
overall incidence of treatment-emergent adverse events (subjects with anemia [1]; completed multicenter studies): 49.5%
serious adverse events or withdrawals due to related adverse events (subjects with anemia [1]; open label clinical trials, about 1700 subjects, up to 1,000 mg over 15 minutes i.v.): no serious adverse events or withdrawals
incidence of other serious adverse events (subjects with anemia [1]; placebo-controlled, single-dose crossover study): 0.3%
time after initial dose at which decreases in blood phosphate were apparent (subjects with anemia [1]; transient, asymptomatic): approximately 7 days
Size of the Particle +/- SEM, Iron core [7]: 4.4 ± 1.4 nm
Size of the Particle +/- SEM, Total Particle [7]: 6.7 ± 2.5 nm
clastogenic, mutagenic, chromosomal damage or bone marrow cell toxicity [8]: no evidence
cumulative dose with no observed adverse effect level (clinical signs of iron accumulation in liver, spleen, kidneys) (rats [9]): up to 117 mg iron/kg body weight
maximal total serum iron concentration (Cmax) ([10]; 500 mg dose): approximately 150 μg/mL
maximal total serum iron concentration (Cmax) ([10]; 1000 mg dose): ~320 µg/mL
renal elimination ([10]; human, in vivo): negligible
highest non-lethal dose level (mice): 1000 mg iron/kg b.w.
signs of illness (mice; single dose 250 mg iron/kg b.w. injected within 2 seconds): no signs of illness
acute toxicity relative to iron sucrose [11]: one-fifth
iron overload ([12]; dosing schedules of the studies): Iron overload was avoided
deaths attributed to treatment ([12]; repeated-dose studies): no deaths
laboratory values reported as treatment-related treatment-emergent adverse events ([12]; repeated-dose studies): 6 patients
patients who experienced serious adverse events (considered not related) ([12]; repeated-dose studies): 10 patients
withdrawals considered possibly related to treatment (allergic skin reactions) ([12]; repeated-dose studies): 2 withdrawals
serious adverse events or withdrawals due to adverse events ([12]; single-dose studies): no serious adverse events or withdrawals
main pharmacodynamic effects (patients): transient elevations of serum iron levels, TfS and serum ferritin
changes in vital signs evaluations (subjects with anemia [2]): no clinically meaningful changes
deaths attributed to treatment (subjects with anemia [2]): no deaths
drug-related mild or moderate hypotension (subjects with anemia [2]): 0.2%
drug-related mild or moderate hypotension, number of subjects (subjects with anemia [2]): 4 subjects
incidence of drug-related treatment-emergent adverse events of hypersensitivity (subjects with anemia [2]): 0.2%
median time to recovery of blood phosphate (subjects with anemia [2]): approximately 2 weeks
overall incidence of treatment-emergent adverse events, 200 mg versus 1000 mg doses (subjects with anemia [2]): similar
treatment-emergent adverse events indicative of potential allergic reactions (rash, pruritus, urticaria) (subjects with anemia [2]): < 2%
osmolarity [13]: physiological osmolarity
patients who achieved a ≥20 g/L increase in Hb on at least 1 occasion (patients (Hb levels); Cohort 1): 75%
patients who achieved normal Hb levels (patients (Hb levels); Cohort 1, 4-week follow-up visit): 37%
patients who achieved a ≥20 g/L increase in Hb on at least 1 occasion (patients (Hb levels); Cohort 2): 73%
patients who achieved normal Hb levels (patients (Hb levels); Cohort 2, 4-week follow-up visit): 48%
treatment-related local tissue irritation (rabbit): No treatment-related local tissue irritation
patients who achieved an increase of Hb of ≥10 g/L at any point during the study [14]: 61.7%
Iron (III) Control Release Test T75 [15]: 117.8 min

polyglucose sorbitol carboxymethyl ether-coated non-stoichiometric magnetite [ferumoxytol]
blood half-life [16]: 10 to 14 h
osmolarity [17]: 297 mOsm/kg
average colloidal particle size [18]: about 30 nm
